Test results published in ChEMBL document CHEMBL1201862, “PubChem BioAssay data set” (2004).
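A five-concentration, 48-hour dose response in 96-well plates underlies each endpoint, interpolated linearly between surrounding concentrations. GI50 marks 50% less growth.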 The source made the active and inactive calls. No stated cut-off is given here; in the data, active = GI50 up to about 1.1 µM and inactive = higher.

What was measured:
Test in all cases: NCI anticancer screen, dose series, 48 h
786-0 = test system: 786-0
A549 = test system: A549
ACHN = test system: ACHN
BT-549 = test system: BT-549
CAKI-1 = test system: CAKI-1
CCRF-CEM = test system: CCRF-CEM
COLO 205 = test system: COLO 205
DU-145 = test system: DU-145
EKVX = test system: EKVX
HCC 2998 = test system: HCC 2998
HCT-116 = test system: HCT-116
HCT-15 = test system: HCT-15
HL-60 = test system: HL-60
HOP-92 = test system: HOP-92
HT-29 = test system: HT-29
Hs-578T = test system: Hs-578T
IGROV-1 = test system: IGROV-1
K562 = test system: K562
KM12 = test system: KM12
LOX IMVI = test system: LOX IMVI
M14 = test system: M14
MCF7 = test system: MCF7
MDA-MB-231 = test system: MDA-MB-231
MDA-MB-435 = test system: MDA-MB-435
MDA-N = test system: MDA-N
MOLT-4 = test system: MOLT-4
Malme-3M = test system: Malme-3M
NCI-H226 = test system: NCI-H226
NCI-H23 = test system: NCI-H23
NCI-H522 = test system: NCI-H522
NCI/ADR-RES = test system: NCI/ADR-RES
OVCAR-3 = test system: OVCAR-3
OVCAR-4 = test system: OVCAR-4
OVCAR-5 = test system: OVCAR-5
OVCAR-8 = test system: OVCAR-8
PC-3 = test system: PC-3
RPMI-8226 = test system: RPMI-8226
RXF 393 = test system: RXF 393
SF-268 = test system: SF-268
SF-295 = test system: SF-295
SK-MEL-28 = test system: SK-MEL-28
SK-MEL-2 = test system: SK-MEL-2
SK-MEL-5 = test system: SK-MEL-5
SK-OV-3 = test system: SK-OV-3
SNB-19 = test system: SNB-19
SNB-75 = test system: SNB-75
SR = test system: SR
SW-620 = test system: SW-620
T47D = test system: T47D
TK-10 = test system: TK-10
UACC-257 = test system: UACC-257
UACC-62 = test system: UACC-62
UO-31 = test system: UO-31
A498 = test system: A498
HOP-62 = test system: HOP-62
NCI-H460 = test system: NCI-H460
SF-539 = test system: SF-539
SN12C = test system: SN12C
U-251 = test system: U-251

`FC1=C2CCCCCC2SC1(F)F` (stereo unspecified) was tested, and the GI50 (786-0) was > 100 µM (inactive), the GI50 (A549) was > 100 µM (inactive) and the GI50 (ACHN) was 29.8 µM (inactive). For the same compound, the GI50 (BT-549) was > 100 µM (inactive), the GI50 (CAKI-1) was 35.6 µM (inactive) and the GI50 (CCRF-CEM) was 3.36 µM (inactive). The GI50 (COLO 205) was 19.1 µM (inactive), the GI50 (DU-145) was > 100 µM (inactive) and the GI50 (EKVX) was > 100 µM (inactive). The GI50 (HCC 2998) was > 100 µM (inactive), the GI50 (HCT-116) was 37.8 µM (inactive) and the GI50 (HCT-15) was 34.4 µM. The GI50 (HL-60) was 12.7 µM (inactive), the GI50 (HOP-92) was 7.18 µM (inactive) and the GI50 (HT-29) was 43.6 µM (inactive). The GI50 (Hs-578T) was > 100 µM (inactive), the GI50 (IGROV-1) was > 100 µM (inactive) and the GI50 (K562) was 20.8 µM (inactive). The GI50 (KM12) was > 100 µM (inactive), the GI50 (LOX IMVI) was 15.7 µM (inactive) and the GI50 (M14) was 30.7 µM (inactive). For the same compound, the GI50 (MCF7) was 71.9 µM (inactive), the GI50 (MDA-MB-231) was 78.9 µM (inactive) and the GI50 (MDA-MB-435) was 26.4 µM (inactive). For the same compound, the GI50 (MDA-N) was 42.2 µM (inactive), the GI50 (MOLT-4) was 16.4 µM (inactive) and the GI50 (Malme-3M) was 21.9 µM (inactive). The GI50 (NCI-H226) was > 100 µM (inactive), the GI50 (NCI-H23) was > 100 µM (inactive) and the GI50 (NCI-H522) was 15.6 µM (inactive). The GI50 (NCI/ADR-RES) was > 100 µM (inactive), the GI50 (OVCAR-3) was > 100 µM (inactive) and the GI50 (OVCAR-4) was > 100 µM (inactive). For the same compound, the GI50 (OVCAR-5) was > 100 µM (inactive), the GI50 (OVCAR-8) was 70.3 µM (inactive) and the GI50 (PC-3) was > 100 µM (inactive). The GI50 (RPMI-8226) was 28.6 µM (inactive), the GI50 (RXF 393) was 13.3 µM (inactive) and the GI50 (SF-268) was > 100 µM (inactive). For the same compound, the GI50 (SF-295) was > 100 µM (inactive), the GI50 (SK-MEL-28) was > 100 µM (inactive) and the GI50 (SK-MEL-2) was > 100 µM (inactive). For the same compound, the GI50 (SK-MEL-5) was > 100 µM (inactive), the GI50 (SK-OV-3) was > 100 µM (inactive) and the GI50 (SNB-19) was > 100 µM (inactive). The GI50 (SNB-75) was > 100 µM (inactive), the GI50 (SR) was 20.1 µM (inactive) and the GI50 (SW-620) was 14.8 µM (inactive). The GI50 (T47D) was > 100 µM (inactive), the GI50 (TK-10) was 36.6 µM (inactive) and the GI50 (UACC-257) was 99.3 µM (inactive). For the same compound, the GI50 (UACC-62) was > 100 µM (inactive) and the GI50 (UO-31) was > 100 µM (inactive).

In the case of `Cc1cnc2nc(-c3ccc(Cl)cc3)cc(O)c2c1`, the GI50 (786-0) is reported as 6.17 µM (inactive), the GI50 (A498) is reported as 5.48 µM (inactive) and the GI50 (A549) is reported as 5.05 µM (inactive). For the same compound, the GI50 (ACHN) was 6.21 µM (inactive), the GI50 (BT-549) was 9.95 µM (inactive) and the GI50 (CAKI-1) was 5.33 µM (inactive). For the same compound, the GI50 (CCRF-CEM) was 4.44 µM (inactive), the GI50 (COLO 205) was 4.31 µM (inactive) and the GI50 (DU-145) was 11.1 µM (inactive). The GI50 (EKVX) was 18.5 µM (inactive), the GI50 (HCC 2998) was 11.4 µM (inactive) and the GI50 (HCT-116) was 3.84 µM (inactive). The GI50 (HCT-15) was 2.07 µM, the GI50 (HL-60) was 1.87 µM (inactive) and the GI50 (HOP-62) was 5.86 µM (inactive). The GI50 (HOP-92) was 2.32 µM (inactive), the GI50 (HT-29) was 3.27 µM (inactive) and the GI50 (Hs-578T) was 6.7 µM (inactive). The GI50 (IGROV-1) was 5.66 µM (inactive), the GI50 (K562) was 1.07 µM (active) and the GI50 (KM12) was 3.76 µM (inactive). The GI50 (LOX IMVI) was 4.63 µM (inactive), the GI50 (M14) was 5.81 µM (inactive) and the GI50 (MCF7) was 4.48 µM (inactive). For the same compound, the GI50 (MDA-MB-231) was 5.27 µM (inactive), the GI50 (MDA-MB-435) was 0.47 µM (active) and the GI50 (MDA-N) was 0.959 µM (active). For the same compound, the GI50 (MOLT-4) was 3.31 µM (inactive), the GI50 (Malme-3M) was 8.61 µM (inactive) and the GI50 (NCI-H226) was 13.2 µM (inactive). For the same compound, the GI50 (NCI-H23) was 29.4 µM (inactive), the GI50 (NCI-H460) was 3.47 µM (inactive) and the GI50 (NCI-H522) was 5.47 µM (inactive). For the same compound, the GI50 (NCI/ADR-RES) was 6.1 µM (inactive), the GI50 (OVCAR-3) was 2.95 µM (inactive) and the GI50 (OVCAR-4) was 19.1 µM (inactive). The GI50 (OVCAR-5) was 11.1 µM (inactive), the GI50 (OVCAR-8) was 9.14 µM (inactive) and the GI50 (PC-3) was 2.12 µM (inactive). For the same compound, the GI50 (RPMI-8226) was 3.88 µM (inactive), the GI50 (SF-268) was 19.7 µM (inactive) and the GI50 (SF-295) was 3.55 µM (inactive). The GI50 (SF-539) was 2.37 µM (inactive), the GI50 (SK-MEL-28) was > 22.9 µM (inactive) and the GI50 (SK-MEL-2) was 5.82 µM (inactive). For the same compound, the GI50 (SK-MEL-5) was 2.49 µM (inactive), the GI50 (SK-OV-3) was 18.4 µM (inactive) and the GI50 (SN12C) was 6.31 µM (inactive). The GI50 (SNB-19) was 5.35 µM (inactive), the GI50 (SNB-75) was 5.14 µM (inactive) and the GI50 (SR) was 0.598 µM (active). The GI50 (SW-620) was 4.06 µM (inactive), the GI50 (T47D) was 43 µM (inactive) and the GI50 (TK-10) was 43.2 µM (inactive). The GI50 (U-251) was 3.9 µM (inactive), the GI50 (UACC-257) was 11.5 µM (inactive) and the GI50 (UACC-62) was 5.5 µM (inactive). For the same compound, the GI50 (UO-31) was 8.59 µM (inactive).

`Cc1ccc(SCC(CF)OC(C)n2cnc3c(O)nc(N)nc32)cc1` (stereo unspecified) was tested, and the GI50 (786-0) was > 100 µM (inactive), the GI50 (A549) was > 100 µM (inactive) and the GI50 (ACHN) was 55.6 µM (inactive). The GI50 (BT-549) was 19.8 µM (inactive), the GI50 (CAKI-1) was > 100 µM (inactive) and the GI50 (CCRF-CEM) was > 100 µM (inactive). The GI50 (COLO 205) was > 100 µM (inactive), the GI50 (DU-145) was > 100 µM (inactive) and the GI50 (HCC 2998) was > 100 µM (inactive). For the same compound, the GI50 (HCT-116) was > 100 µM (inactive), the GI50 (HCT-15) was over 100 µM and the GI50 (HL-60) was 41.1 µM (inactive). The GI50 (HOP-62) was > 100 µM (inactive), the GI50 (HOP-92) was > 100 µM (inactive) and the GI50 (HT-29) was > 100 µM (inactive). The GI50 (Hs-578T) was > 100 µM (inactive), the GI50 (IGROV-1) was > 100 µM (inactive) and the GI50 (KM12) was > 100 µM (inactive). For the same compound, the GI50 (LOX IMVI) was > 100 µM (inactive), the GI50 (M14) was > 100 µM (inactive) and the GI50 (MCF7) was 34.9 µM (inactive). The GI50 (MDA-MB-231) was > 100 µM (inactive), the GI50 (MDA-MB-435) was 63.8 µM (inactive) and the GI50 (MDA-N) was > 100 µM (inactive). The GI50 (MOLT-4) was 50.5 µM (inactive), the GI50 (Malme-3M) was > 100 µM (inactive) and the GI50 (NCI-H226) was > 100 µM (inactive). The GI50 (NCI-H23) was 75.5 µM (inactive), the GI50 (NCI-H460) was > 100 µM (inactive) and the GI50 (NCI-H522) was > 100 µM (inactive). The GI50 (NCI/ADR-RES) was > 100 µM (inactive), the GI50 (OVCAR-3) was 88.7 µM (inactive) and the GI50 (OVCAR-4) was > 100 µM (inactive). The GI50 (OVCAR-5) was > 100 µM (inactive), the GI50 (OVCAR-8) was > 100 µM (inactive) and the GI50 (PC-3) was > 100 µM (inactive). For the same compound, the GI50 (RPMI-8226) was > 100 µM (inactive), the GI50 (SF-268) was > 100 µM (inactive) and the GI50 (SF-295) was > 100 µM (inactive). The GI50 (SF-539) was > 100 µM (inactive), the GI50 (SK-MEL-28) was > 100 µM (inactive) and the GI50 (SK-MEL-2) was > 100 µM (inactive). For the same compound, the GI50 (SK-MEL-5) was 18.1 µM (inactive), the GI50 (SK-OV-3) was > 100 µM (inactive) and the GI50 (SN12C) was > 100 µM (inactive). For the same compound, the GI50 (SNB-19) was > 100 µM (inactive), the GI50 (SNB-75) was > 100 µM (inactive) and the GI50 (SR) was 98.4 µM (inactive). The GI50 (SW-620) was > 100 µM (inactive), the GI50 (T47D) was 49.1 µM (inactive) and the GI50 (TK-10) was > 100 µM (inactive). For the same compound, the GI50 (U-251) was > 100 µM (inactive), the GI50 (UACC-257) was 48.4 µM (inactive) and the GI50 (UACC-62) was > 100 µM (inactive). For the same compound, the GI50 (UO-31) was > 100 µM (inactive).
